# From patent US11850247B2, “Antiviral compounds” (REGENTS OF THE UNIVERSITY OF MINNESOTA, priority 2020, dated 2023)
# Assays:
# [1] = test system: HIV-1; assay: Anti-HIV-1 activity in TZM-GFP cells (viral LTR-activated GFP expression); assay type: cell-based; conditions: for EC50: Human immunodeficiency virus 1, HIV-1 strain MOI=1, GFP positive cells counted after 48 hours; for inhibition at 2 µM: Human immunodeficiency virus 1, 2 μM compound; for inhibition at 2 µM / inhibition at 20 µM: HIV-1 MOI=1; for inhibition at 20 µM: Human immunodeficiency virus 1, 20 μM compound
# Method: The potency of HIV-1 inhibition by a compound was based on its inhibitory effect on viral LTR-activated GFP expression compared with that of compound-free (DMSO) controls. Briefly, TZM-GFP cells were plated at density of 1×10^4 cells per well in a 96-well plate. 24 hours later, media was replaced with increasing concentrations of compound. 24 hours post treatment, cells were exposed to an HIV-1 strain (MOI=1).
# (§1) The cytotoxicity of each compound was also determined in TZM-GFP cells. Cells were plated at a density of 1×10^4 cells per well in a 96-well plate and were continuously exposed to increasing concentrations of a compound for 72 hours. The number of viable cells in each well was determined using a Cell Proliferation Kit II (XTT), and 50% cytotoxicity concentration (CC50) values were determined. All the cell-based assays were conducted in duplicate and in at least two independent experiments. For the EC50 and CC50 dose responses, values were plotted in GraphPad Prism 5 and analyzed with the log (inhibitor) vs. normalized response-variable slope equation. Final values were calculated in each independent assay and the average values were determined. Statistical analysis (calculation of standard deviation) was performed by using Microsoft Excel.
# [2] = biological target: covalently-crosslinked hexameric CA A14C/E45C/W184A/M185A (CA121) (Human immunodeficiency virus type 1 group M subtype B, UniProt P12493, A146C/E177C/M317A/W316A); assay: Thermal shift assay (TSA), CA hexamer stability; assay type: binding, HIV-1; conditions: compound 20 μM, ΔTm=Tm−T0 vs DMSO
# [3] = Cytotoxicity in TZM-GFP cells (XTT); assay type: cell-based; conditions: human, 72 hours exposure, XTT
# Method: as §1
Structure (SMILES),EC50 [1],TSA ΔTm (° C.) [2],CC50 at 72 h [3],inhibition at 2 µM [1],inhibition at 20 µM [1]
"CN(C(=O)[C@H](Cc1ccccc1)NC(=O)CN1C(=O)NC2(CCCCC2)C1=O)c1cccc(Br)c1 [Example 29, N-(3-bromophenyl)-2-(2-(2,4-dioxo-1,3-diazaspiro[4.5]decan-3-yl)acetamido)-N-methyl-3-phenylpropanamide]",> 20 µM,1.5 °C,> 50 µM,,
"Cc1ccc(N(C)C(=O)[C@H](Cc2ccccc2)NC(=O)CN2C(=O)NC3(CCCCC3)C2=O)cc1 [Example 24, 2-(2-(2,4-dioxo-1,3-diazaspiro[4.5]decan-3-yl)acetamido)-N-methyl-3-phenyl-N-(p-tolyl)propenamide]",1.9 ± 0.5 µM,2.7 °C,> 100 µM,,
"CCN(C(=O)[C@H](Cc1ccccc1)NC(=O)Cc1ccc2ccccc2c1)c1ccccc1 [Example 15, (S)—N-ethyl-2-(2-(naphthalen-2-yl)acetamido)-N,3-diphenylpropanamide]",,4.3 °C,< 50 µM,46%,97%
"CN(C(=O)[C@H](Cc1ccccc1)NC(=O)Cn1c(=O)[nH]c2ccccc2c1=O)c1ccc(F)cc1 [Example 32, (S)-2-(2-(2,4-dioxo-1,4-dihydroquinazolin-3(2H)-yl)acetamido)-N-(4-fluorophenyl)-N-methyl-3-phenylpropanamide]",8 ± 1.3 µM,2.4 °C,> 100 µM,,
"CN(C(=O)[C@H](Cc1ccccc1)NC(=O)CN1C(=O)NC2(CCCCC2)C1=O)c1ccc(Cl)cc1 [Example 27, N-(4-chlorophenyl)-2-(2-(2,4-dioxo-1,3-diazaspiro[4.5]decan-3-yl)acetamido)-N-methyl-3-phenylpropanamide]",2.5 ± 0.5 µM,2.2 °C,> 100 µM,,
"CCN(C(=O)[C@H](Cc1ccccc1)NC(=O)Cc1cccc2ccccc12)c1ccccc1 [Example 21, (S)—N-ethyl-2-(2-(naphthalen-1-yl)acetamido)-N,3-diphenylpropanamide]",1.8 ± 0.09 µM,4.9 °C,< 50 µM,,
"Cc1cn(CC(=O)N[C@@H](Cc2ccccc2)C(=O)N(C)c2cccc(F)c2)c(=O)[nH]c1=O [Example 47, (S)—N-(3-fluorophenyl)-N-methyl-2-(2-(5-methyl-2,4-dioxo-3,4-dihydropyrimidin-1(2H)-yl)acetamido)-3-phenylpropanamide]",,0.9 °C,> 50 µM,0%,74%
"CN(C(=O)[C@H](Cc1ccccc1)NC(=O)Cc1cccc2ccccc12)c1ccccc1 [Example 16, (S)—N-methyl-2-(2-(naphthalen-1-yl)acetamido)-N,3-diphenylpropanamide]",1.1 ± 0.04 µM,6.0 °C,< 50 µM,,
"CN(C(=O)[C@H](Cc1ccccc1)NC(=O)Cc1ccc2ccccc2c1)c1cccc(Cl)c1 [Example 13, (S)—N-(3-chlorophenyl)-N-methyl-2-(2-(naphthalen-2-yl)acetamido)-3-phenylpropanamide]",,4.3 °C,< 50 µM,0%,94%
"Cc1ccc(C)c2c1NC(=O)C2CC(=O)N[C@@H](Cc1ccccc1)C(=O)N(C)c1ccc(F)cc1 (stereo partly drawn) [Example 6, (2S)-2-(2-(4,7-dimethyl-2-oxoindolin-3-yl)acetamido)-N-(4-fluorophenyl)-N-methyl-3-phenylpropanamide]",5.4 ± 0.5 µM,−1.7 °C,> 100 µM,,
"CN(C(=O)[C@H](Cc1ccccc1)NC(=O)CN1C(=O)NC2(CCCCC2)C1=O)c1cccc(Cl)c1 [Example 28, N-(3-chlorophenyl)-2-(2-(2,4-dioxo-1,3-diazaspiro[4.5]decan-3-yl)acetamido)-N-methyl-3-phenylpropanamide]",,3.3 °C,< 50 µM,9%,98%
"CN(C(=O)[C@H](Cc1ccccc1)NC(=O)Cc1ccc2ccccc2c1)c1cccc(F)c1 [Example 14, (S)—N-(3-fluorophenyl)-N-methyl-2-(2-(naphthalen-2-yl)acetamido)-3-phenylpropanamide]",,5.2 °C,< 50 µM,0%,97%
"Cc1ccc(C)c2c1NC(=O)C2CC(=O)N[C@@H](Cc1ccccc1)C(=O)N(C)c1ccccc1 (stereo partly drawn) [Example 5, (2S)-2-(2-(4,7-dimethyl-2-oxoindolin-3-yl)acetamido)-N-methyl-N,3-diphenylpropanamide]",4.9 ± 0.3 µM,−1.8 °C,> 100 µM,,
"Cc1ccc(C)c2c1NC(=O)C2CC(=O)N[C@@H](Cc1ccccc1)C(=O)N(C)c1ccc(Cl)cc1 (stereo partly drawn) [Example 8, (2S)—N-(4-chlorophenyl)-2-(2-(4,7-dimethyl-2-oxoindolin-3-yl)acetamido)-N-methyl-3-phenylpropanamide]",2.8 ± 0.1 µM,−1.3 °C,63 ± 13 µM,,
"CN(C(=O)[C@H](Cc1ccccc1)NC(=O)CN1C(=O)NC2(CCCCC2)C1=O)c1ccc(F)cc1 [Example 25, 2-(2-(2,4-dioxo-1,3-diazaspiro[4.5]decan-3-yl)acetamido)-N-(4-fluorophenyl)-N-methyl-3-phenylpropanamide]",,3.1 °C,> 50 µM,9%,99%
"CN(C(=O)[C@H](Cc1ccccc1)NC(=O)Cn1c(=O)[nH]c2ccccc2c1=O)c1ccccc1 [Example 31, (S)-2-(2-(2,4-dioxo-1,4-dihydroquinazolin-3(2H)-yl)acetamido)-N-methyl-N,3-diphenylpropanamide]",6.9 ± 0.8 µM,2.7 °C,> 100 µM,,
"COc1ccc2[nH]cc(CC(=O)N[C@@H](Cc3ccccc3)c3nccn3-c3ccc(Cl)cc3)c2c1 [Example 61, (S)-2-(5-methoxy-1H-indol-3-yl)-N-(2-phenyl-1-(1-(4-chlorophenyl)-1H-imidazol-2-yl)ethyl)acetamide]",3.3 ± 0.03 µM,4.0 ± 0.3 °C,,,
"COc1ccc2[nH]cc(CC(=O)N[C@@H](Cc3ccccc3)c3nccn3-c3ccc(Br)cc3)c2c1 [Example 62, (S)-2-(5-methoxy-1H-indol-3-yl)-N-(2-phenyl-1-(1-(4-bromophenyl)-1H-imidazol-2-yl)ethyl)acetamide]",3.5 ± 0.3 µM,2.8 ± 0.3 °C,,,
"CCn1cc(CC(=O)N[C@@H](Cc2ccccc2)c2ncccc2-c2ccc(Cl)cc2)c2cc(OC)ccc21 [Example 58, (S)-2-(1-ethyl-5-methoxy-1H-indol-3-yl)-N-(2-phenyl-1-(3-(4-chlorophenyl)pyridin-2-yl)ethyl)acetamide]",3.6 ± 0.2 µM,5.9 ± 0.2 °C,,,
"COc1ccc2[nH]cc(CC(=O)N[C@@H](Cc3ccccc3)c3nccn3-c3ccc(I)cc3)c2c1 [Example 63, (S)-2-(5-methoxy-1H-indol-3-yl)-N-(2-phenyl-1-(1-(4-iodophenyl)-1H-imidazol-2-yl)ethyl)acetamide]",3.3 ± 0.2 µM,2.7 ± 0.1 °C,,,
"COc1ccc2[nH]cc(CC(=O)N[C@@H](Cc3ccccc3)c3ncccc3-c3ccc(Cl)cc3)c2c1 [Example 55, (S)-2-(5-methoxy-1H-indol-3-yl)-N-(2-phenyl-1-(3-(4-chlorophenyl)pyridin-2-yl)ethyl)acetamide]",1.4 ± 0.7 µM,7.8 ± 0.3 °C,,,
"O=C(Cc1c[nH]c2ccccc12)N[C@@H](Cc1ccccc1)c1ncccc1-c1ccc(Cl)cc1 [Example 54, (S)-2-(1H-indol-3-yl)-N-(2-phenyl-1-(3-(4-chlorophenyl)pyridin-2-yl)ethyl)acetamide]",0.79 ± 0.25 µM,7.7 ± 0.2 °C,,,
"CCn1cc(CC(=O)N[C@@H](Cc2ccccc2)c2ncccc2-c2ccc(Cl)cc2)c2ccccc21 [Example 57, (S)-2-(1-ethyl-1H-indol-3-yl)-N-(2-phenyl-1-(3-(4-chlorophenyl)pyridin-2-yl)ethyl)acetamide]",2.7 ± 0.2 µM,6.6 ± 0.2 °C,,,
"CCn1cc(CC(=O)N[C@@H](Cc2ccccc2)c2ncccc2-c2ccc(Br)cc2)c2ccccc21 [Example 60, (S)-2-(1-ethyl-1H-indol-3-yl)-N-(2-phenyl-1-(3-(4-bromophenyl)pyridin-2-yl)ethyl)acetamide]",3.2 ± 0.3 µM,6.3 ± 0.1 °C,,,
"COc1ccc2[nH]cc(CC(=O)N[C@@H](Cc3ccccc3)c3ncccc3-c3ccc(Br)cc3)c2c1 [Example 59, (S)-2-(5-methoxy-1H-indol-3-yl)-N-(2-phenyl-1-(3-(4-bromophenyl)pyridin-2-yl)ethyl)acetamide]",2.1 ± 0.8 µM,6.3 ± 0.6 °C,,,
"O=C(Cc1c[nH]c2ccc(O)cc12)N[C@@H](Cc1ccccc1)c1ncccc1-c1ccc(Cl)cc1 [Example 56, (S)-2-(5-hydroxy-1H-indol-3-yl)-N-(2-phenyl-1-(3-(4-chlorophenyl)pyridin-2-yl)ethyl)acetamide]",0.31 ± 0.07 µM,8.7 ± 0.3 °C,,,
